Results published in US20160095823A1, “METHODS OF USING PROPOFOL DERIVATIVES FOR ANALGESIA” (priority 2005, published 2016).
Several values for one entry are separate records, joined by “and”; a condition that tells them apart may be missing. Identical values can stand only once. Like-named read-outs stand apart in the source and are kept apart here.

Assays:
[1] = tested on: voltage-operated sodium channels; conditions: cited from earlier work
[2] = biological target: T1, α1β heteromeric glycine receptors (Rattus norvegicus, UniProt P07727); experiment: Co-activation of the current response to 10 μM glycine, whole-cell patch clamp, transfected HEK 293 cells; type: cell-based; conditions: for nH (Hill coefficient), coactivating response, α1β heteromer: co-applied with 10 μM glycine, Hill fit, ± s.d.; for half-maximum concentration for glycine receptor co-activation, fold lower than for half-maximum blockade of sodium channels: selectivity versus reported sodium channel block
T1 construct: expressed in transfected cells; host or cells: HEK 293, transient electroporation, α:β cDNA 1:10, pCIS2 vector
T1 sequence (P20781 23-496 partner, one chain of several): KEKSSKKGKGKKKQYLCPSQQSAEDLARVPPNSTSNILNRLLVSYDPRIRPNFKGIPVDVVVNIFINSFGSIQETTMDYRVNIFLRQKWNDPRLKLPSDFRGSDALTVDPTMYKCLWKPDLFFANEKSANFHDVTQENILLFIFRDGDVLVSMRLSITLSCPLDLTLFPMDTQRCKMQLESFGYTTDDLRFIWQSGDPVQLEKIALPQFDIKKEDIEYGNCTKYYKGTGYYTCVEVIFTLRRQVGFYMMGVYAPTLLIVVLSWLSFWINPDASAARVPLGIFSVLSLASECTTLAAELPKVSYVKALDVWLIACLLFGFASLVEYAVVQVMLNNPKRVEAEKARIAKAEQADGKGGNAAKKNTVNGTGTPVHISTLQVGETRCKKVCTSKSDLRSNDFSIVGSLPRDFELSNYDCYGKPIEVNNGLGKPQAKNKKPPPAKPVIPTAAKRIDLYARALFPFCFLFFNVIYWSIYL
Experimental: (§1) Reduced sensitivity to 1000 μM picrotoxin in α1β heteromeric receptors was used as an assay of the efficacy of β subunit expression. Cells were cultured in Dulbecco's modified Eagle's medium (DMEM, Biochrom, Berlin, Germany), supplemented with 10% fetal calf serum (FCS, Biochrom, Berlin, Germany), 100 U ml^−1 penicillin and 100 μg ml^−1 streptomycin at 37° C. in a 5% CO2/air incubator. For transfection, cells were suspended in a buffer containing 50 mM K2HPO4 and 20 mM K-acetate, pH 7.35. […] To visualize transfected cells, they were co-transfected with cDNA of green fluorescent protein (GFP 10 μg ml^−1). For transfection, we used an electroporation device by EquiBio (Kent, UK). Transfected cells were replated on glass-coverslips and incubated 15-24 h before recording.
(§2) The phenol derivatives under investigation were prepared as 1 M stock solution in ethanol, light-protected and stored in glass vessels at −20° C. Concentrations were calculated from the amount injected into the glass vials. Drug-containing vials were vigorously vortexed for 60 min.
(§3) Patch electrodes contained [mM] KCl 140, MgCl2 2, EGTA 11, HEPES 10, glucose 10; the bath solution contained [mM] NaCl 162, KCl 5.3, NaHPO4 0.6, KH2PO4 0.22, HEPES 15, glucose 5.6.
(§4) Standard whole-cell experiments (Hamill et al., (1981) Pflügers Arch., 391, 85-100.) were performed at −30 mV membrane potential. A tight electrical seal of several GΩ formed between the cell membrane and a patch-clamp electrode allows inward currents due to agonist-induced channel activation to resolve in the pA range. Electrical resistance of the pipettes was around 5 MΩ, corresponding to a total access resistance in the whole-cell configuration of about 10 MΩ. An ultra-fast liquid filament switch technique (Franke et al., (1987) Neurosci. Lett., 77, 199-204) was used for the application of the agonist in pulses of 2 s duration. The agonist and/or the drug under investigation were applied to the cells via a smooth liquid filament achieved with a single outflow (glass tubing 0.15 mm inner diameter) connected to a piezo crystal. The cells were placed at the interface between this filament and the continuously flowing background solution. When a voltage pulse was applied to the piezo, the tube was moved up and down onto or away from the cell under investigation. […] The contents of these reservoirs were mixed at a junction immediately before entering the superfusion chamber.
(§5) A new cell was used for each drug and each protocol, at least three different experiments were performed for each setting. The amount of the diluent ethanol corresponding to the highest drug concentration used was 34 000 μM.
(§6) For data acquisition and further analysis the inventors used the Axopatch 200B amplifier in combination with pClamp6 software (Axon Instruments, Union City, Calif., USA). Currents were filtered at 2 kHz. Fitting procedures were performed using a non-linear least-squares Marquardt-Levenberg algorithm. Details are provided in the appropriate figure legends or in the results section.
(§7) Activated or co-activated currents were normalized to their own maximum response. […] In these cases, the maximum response was the response at the highest concentration of the test compound for which a reliable response could be recorded.
(§8) Only results obtained with α1β receptors were enrolled in the statistical tests. […] Statistical analysis was performed in order to reveal differences in the maximum effect on the one hand and in the concentrations required to achieve half-maximum effect (EC50) on the other between halogenated and non-halogenated analogues, between compounds with one vs. two methyl groups, or between compounds with ortho- or meso-position of the methyl groups with respect to the phenolic hydroxyl group, respectively. Curve fitting and parameter estimation of the Hill curves were performed using the program “PROC NLMIXED” of SAS Release 8.02.

[3] = biological target: T2, α1 homomeric glycine receptors (Rattus norvegicus, UniProt P07727); experiment: as above; type: cell-based; conditions: for nH (Hill coefficient), coactivating response, α1 homomer: co-applied with 10 μM glycine, Hill fit, ± s.d.
T2 construct: expressed in transfected cells; host or cells: HEK 293, transient electroporation, cDNA in pCIS2, GFP cDNA co-transfected as marker
T2 sequence (P07727 29-457): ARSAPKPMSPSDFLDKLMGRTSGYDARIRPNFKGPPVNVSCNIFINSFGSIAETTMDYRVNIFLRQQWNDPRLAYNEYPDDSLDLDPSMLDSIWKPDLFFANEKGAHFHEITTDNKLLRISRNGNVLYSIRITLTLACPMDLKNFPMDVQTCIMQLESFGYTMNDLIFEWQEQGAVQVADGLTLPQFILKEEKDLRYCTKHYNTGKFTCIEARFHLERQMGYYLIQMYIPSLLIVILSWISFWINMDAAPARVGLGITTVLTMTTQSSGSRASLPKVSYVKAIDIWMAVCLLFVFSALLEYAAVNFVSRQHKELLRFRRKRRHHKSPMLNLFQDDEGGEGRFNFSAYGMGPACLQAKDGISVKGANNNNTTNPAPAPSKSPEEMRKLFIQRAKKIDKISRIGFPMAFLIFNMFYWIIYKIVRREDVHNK
Experimental: as §1, §2, §3, §4, §5, §6, §7, §8

glycine receptors = biological target: T3, glycine receptors (Rattus norvegicus, UniProt P07727); experiment: Inhibitory effects (open channel block) on co-application with saturating 1000 μM glycine; type: cell-based; conditions: co-applied with 1000 μM glycine, 3 experiments
T3 construct: expressed in transfected cells; host or cells: HEK 293
T3 sequence (P07727 29-457): T2 sequence (P07727 29-457)
Experimental: as §4
A new cell was used for each drug and each protocol, at least three different experiments were performed for each setting. […]

[4] = biological target: T4, α-subunits of glycine receptors from the rat coexpressed with human β subunits (Rattus norvegicus, UniProt P07727); experiment: Example 2: direct activation in the absence of glycine, whole-cell mode, HEK293 cells; type: cell-based; conditions: for EC50 values in the absence of the natural transmitter glycine: Example 2; for direct activating effect, fold higher concentrations than the co-activating effect: absence of glycine versus 10 μM glycine
T4 construct: expressed in transfected cells; host or cells: HEK293
T4 sequence (P48167 23-497 partner, one chain of several): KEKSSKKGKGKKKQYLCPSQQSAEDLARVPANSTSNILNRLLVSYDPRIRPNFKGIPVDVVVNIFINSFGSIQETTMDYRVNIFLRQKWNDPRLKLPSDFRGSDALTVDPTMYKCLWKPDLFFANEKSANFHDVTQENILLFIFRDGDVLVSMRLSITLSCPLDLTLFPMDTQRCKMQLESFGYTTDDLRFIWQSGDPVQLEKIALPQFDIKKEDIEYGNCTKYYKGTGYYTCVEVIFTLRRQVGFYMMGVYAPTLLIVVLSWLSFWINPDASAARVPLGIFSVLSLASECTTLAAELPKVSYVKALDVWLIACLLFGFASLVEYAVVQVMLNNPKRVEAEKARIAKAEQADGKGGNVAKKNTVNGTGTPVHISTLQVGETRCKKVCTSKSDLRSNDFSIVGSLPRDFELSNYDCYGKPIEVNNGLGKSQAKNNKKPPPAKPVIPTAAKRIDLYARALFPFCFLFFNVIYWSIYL
Text: (§9) Small cells were studied in the whole-cell mode using an ultra-fast application device.
The solid line is a Hill fit to the data with the indicated parameters. Note that the direct activating effect is observed at 1000-fold higher concentrations than the co-activating effect.

[5] = biological target: T4, α-subunits of glycine receptors from the rat coexpressed with human β subunits; experiment: Example 2: co-activation of the current response to 10 μM glycine, whole-cell mode, HEK293 cells; type: cell-based; conditions: for EC50 values in the presence of glycine (co-activation): Example 2; for concentrations at which the co-activating effect is overridden by inhibitory effects: co-applied with 10 μM glycine; for enhancement of glycine receptor function / EC50 for co-activation, fold lower concentrations than propofol: glycine receptors heterologously expressed in HEK293 cells
Experimental: as §9
The results presented in FIG. 10 were corroborated by repeating the tests carried out to provide the data shown in FIG. 10 to provide the data shown in FIG. 11. […] Note from FIGS. 10 and 11 that the co-activating effect is observed in the concentration range between […]. The co-activating effect is overridden by inhibitory effects at higher concentrations (≧1000 μM). […] Small cells were studied in the whole-cell mode using an ultra-fast application device.

α1β glycine receptors = biological target: T5, α1β glycine receptors (Rattus norvegicus, UniProt P07727); experiment: Picrotoxin block of the 1000 μM glycine current (check of β subunit expression); type: cell-based; conditions: picrotoxin 1000 μM co-applied with 1000 μM glycine
T5 construct: expressed in transfected cells; host or cells: HEK 293, transient electroporation, α:β cDNA 1:10, pCIS2 vector
T5 sequence (P20781 23-496 partner, one chain of several): as the sequence (P20781 23-496 partner, one chain of several) above
Experimental: as §1
(§10) A total of 94 cells were included in the study.

[6] = biological target: T2, α1 homomeric glycine receptors; experiment: as above; type: cell-based; conditions: picrotoxin 1000 μM co-applied with 1000 μM glycine
Experimental: as §1, §10

[7] = biological target: T1, α1β heteromeric glycine receptors; experiment: Direct activation of Cl- inward currents (agonist applied alone), whole-cell patch clamp, HEK 293; type: cell-based; conditions: for directly activated current as % of the maximum glycine (1000 μM) response: 3000 μM compound, without glycine, α1β, n=3; for EC50: read-out: half-maximum concentration (EC50) for direct activation
Experimental: as §1, §4, §5, §6, §7

[8] = biological target: T2, α1 homomeric glycine receptors; experiment: as above; type: cell-based; conditions: for directly activated current as % of the maximum glycine (1000 μM) response: 3000 μM compound, without glycine, α1, n=3; for EC50: read-out: half-maximum concentration (EC50) for direct activation
Experimental: as §1, §4, §5, §6, §7

[9] = read-out: EC50 (μM), normalised coactivating response, α1β heteromer
[10] = read-out: EC50 (μM), normalised coactivating response, α1 homomer

In the case of Cc1cc(O)ccc1Cl [3 methyl-4-chlorophenol], the IC50 ([1]; resting state, read-out: half-maximum block of sodium channels) is given as 400 µM, the EC50 [2] is given as 4 µM and the “nH (Hill coefficient), coactivating response, α1β heteromer” value (“nH (Hill coefficient) … α1β heteromer” for short) [2] is given as 1.2 ± 0.3. The “half-maximum concentration for glycine receptor co-activation, fold lower than for half-maximum blockade of sodium channels” value [2] was ~100 fold, the EC50 [3] was 8 ± 5 µM and the “nH (Hill coefficient), coactivating response, α1 homomer” value (“nH (Hill coefficient) … α1 homomer” for short) [3] was 1.1 ± 0.4. The “concentration producing a reduction in peak current amplitude with response rebound” value (glycine receptors) was > 600 µM.
In the case of Cc1cc(O)cc(C)c1Cl [3,5 dimethyl-4-chlorophenol], the “nH (Hill coefficient) … α1β heteromer” value [2] is reported as 1.3 ± 0.1, the EC50 [2, 9] is reported as 11 ± 2 µM and the “half-maximum concentration for glycine receptor co-activation, fold lower than for half-maximum blockade of sodium channels” value [2] is reported as “about 10 fold”. The “nH (Hill coefficient) … α1 homomer” value [3] was 1.4 ± 2.9, the EC50 [3, 10] was 13 ± 4 µM and the “concentration producing a reduction in peak current amplitude with response rebound” value (glycine receptors) was > 300 µM.
In the case of CC(C)c1cc(I)cc(C(C)C)c1O [4-iodopropofol, 4-iodo-2,6 di-isopropylphenol], the “EC50 values in the absence of the natural transmitter glycine” value [4] is reported as “single-digit micromolar range”, the “direct activating effect, fold higher concentrations than the co-activating effect” value [4] is reported as 1000 fold and the “EC50 values in the presence of glycine (co-activation)” value [5] is reported as “single-digit nanomolar range”. For the same compound, the “concentrations at which the co-activating effect is overridden by inhibitory effects” value [5] was > 1000 µM and the “enhancement of glycine receptor function / EC50 for co-activation, fold lower concentrations than propofol” value [5] was 1000 fold.
With Cc1ccccc1O [2 methylphenol] the EC50 [2] was 448 ± 89 µM, the “nH (Hill coefficient) … α1β heteromer” value [2] was 1.2 ± 0.2 and the EC50 [3] was 70 ± 29 µM. For the same compound, the “nH (Hill coefficient) … α1 homomer” value [3] was 0.7 ± 0.1.
With CC(C)c1cc(Br)cc(C(C)C)c1O [4-bromopropofol, 4-bromo-2,6 di-isopropylphenol] the “EC50 values in the absence of the natural transmitter glycine” value [4] was “single-digit micromolar range”, the “direct activating effect, fold higher concentrations than the co-activating effect” value [4] was 1000 fold and the “EC50 values in the presence of glycine (co-activation)” value [5] was “single-digit nanomolar range”. For the same compound, the “concentrations at which the co-activating effect is overridden by inhibitory effects” value [5] was > 1000 µM and the “enhancement of glycine receptor function / EC50 for co-activation, fold lower concentrations than propofol” value [5] was 1000 fold.
For picrotoxin, the “block of receptors by picrotoxin” value (α1β glycine receptors) was 19±0.05% and the “block of receptors by picrotoxin” value [6] was 55±0.05%.
For Cc1cccc(C)c1O [2,6 dimethylphenol], the IC50 ([1]; membrane potential close to the physiological resting potential, read-out: half-maximum blockade of voltage-operated neuronal sodium channels) is listed as 187 µM, the “nH (Hill coefficient) … α1β heteromer” value [2] is listed as 1.2 ± 0.1 and the EC50 [2, 9] is listed as 370 µM and 373 µM. The “nH (Hill coefficient) … α1 homomer” value [3] was 1.5 ± 0.4, the EC50 [3, 10] was 226 ± 104 µM and the “directly activated current as % of the maximum glycine (1000 μM) response” value (from here on “directly activated current as %”) [7] was 33±10%. For the same compound, the EC50 [7] was 1550 ± 164 µM, the “directly activated current as %” value [8] was 32±6% and the EC50 [8] was 1410 ± 101 µM.
In the case of Cc1cc(C)cc(O)c1 [3,5 dimethylphenol], the “nH (Hill coefficient) … α1β heteromer” value [2] is reported as 1.3 ± 0.2, the EC50 [2, 9] is reported as 308 ± 46 µM and the “nH (Hill coefficient) … α1 homomer” value [3] is reported as 1.7 ± 0.9. For the same compound, the EC50 [3, 10] was 254 ± 139 µM, the “directly activated current as %” value [7] was 38±5% and the EC50 [7] was 1470 ± 83 µM. The “directly activated current as %” value [8] was 30±12% and the EC50 [8] was 1470 ± 208 µM.
In the case of Cc1cccc(O)c1 [3 methylphenol], the “nH (Hill coefficient) … α1β heteromer” value [2] is reported as 1.0 ± 0.1, the EC50 [2, 9] is reported as 222 ± 45 µM and the “nH (Hill coefficient) … α1 homomer” value [3] is reported as 0.9 ± 0.3. The EC50 [3, 10] was 59 ± 19 µM.
For NCC(=O)O [glycine], the “current response evoked by 10 μM glycine, % of the response to 1000 μM glycine” value ([7]; α1β receptors, n=34) was 21±7% and the “current response evoked by 10 μM glycine, % of the response to 1000 μM glycine” value ([8]; α1 receptors, n=24) was 46±5%.
